The test system of one test is NMDA receptor. The test is described as follows: Inhibition of NMDA/glycine-induced increases in intracellular calcium in cultured rat cerebellar granule cells (RCGC). Type of test: cell-based. As to conditions: for IC50: NMDA/glycine-induced increases in intracellular calcium, cultured rat cerebellar granule cells, read-out: IC50 (μM) vs. NMDA. (Calcium assays in cells follow changes in intracellular calcium, usually with a dye or a luminescent sensor.)

Test [1] deals with NMDA receptor-ionophore complex (site labeled by [3H]MK-801). Put plainly: Inhibition of [3H]MK-801 binding in rat cortical/hippocampal washed membrane preparations. As to conditions: for IC50: read-out: IC50 (μM) vs. [3H]MK-801.
[2] abbreviates: rat cortical/hippocampal washed membranes.

Values joined by “and” are separate entries in the source; they are usually repeats but may differ in a detail not shown here. Equal values may be shown once. Where a name gives a salt, the structure may show the parent alone. Read-outs that look alike come from different tables or passages of the source. Marks after values point to notes of the source that are not given here.

A word on the IC50: it is the midpoint of a concentration-inhibition curve. In the case of `CCC(NCCC(c1ccccc1)c1ccccc1)c1ccccc1F` (stereo not shown) [Compound 163], the half-inhibitory concentration (IC50) in the test on NMDA receptor turned out to be 0.326 µM; in test [1] (setting [2]), 10.3 µM.
As to `CNCCC(c1cccc(F)c1)c1cccc(OC)c1` (stereo not shown) [Compound 142], the IC50 with NMDA receptor came to 1.01 µM; in test [1] (setting [2]), 1.54 µM.
In the same order, the values of `NCCC(Oc1ccccc1)c1cccc(F)c1` (stereo not shown) [Compound 118] are 0.409 µM and 0.24 µM.
Consider `COc1ccccc1C(CCN)c1ccccc1` (stereo not shown) [Compound 97, 3-(2-methoxyphenyl)-3-phenyl-1-propylamine], for which the half-maximal inhibitory concentration (IC50) amounted to 0.41 µM with NMDA receptor and 2.6 µM in test [1] (setting [2]).
Regarding `CNC[C@H](C)C(c1cccc(F)c1)c1cccc(F)c1` [Compound 66], the figures for the half-maximal inhibitory concentration (IC50) (in the test on NMDA receptor; in test [1] (setting [2])) were 0.236 µM and 1.2 µM, respectively.
Turning to `NCCc1ccccc1Oc1ccccc1` [Compound 132], the half-maximal inhibitory concentration (IC50) with NMDA receptor amounted to 1.3 µM; in test [1] (setting [2]) it was 6.4 µM.
Take `NCCC(c1cccc(F)c1)c1ccccc1F` (stereo not shown) [Compound 52, 3-(2-fluorophenyl)-3-(3-fluorophenyl)-1-propylamine]: the IC50 with NMDA receptor is 0.102 µM; in test [1] (setting [2]), 0.38 µM.
The like results for `Fc1cccc(C(=C2CCCNC2)c2cccc(F)c2)c1` [Compound 109] were, in that order, 1.95 µM and 1.08 µM.
As for `COc1cccc(C(CCN)c2cccc(OC)c2)c1` [Compound 115, 3,3-bis(3-methoxyphenyl)-1-propylamine], the IC50 with NMDA receptor was 1.4 µM and 1.9 µM; in test [1] (setting [2]), 1 µM.
Consider `NCCC(c1cccc(F)c1)c1ccccc1O` (stereo not shown) [Compound 103, 3-(2-hydroxyphenyl)-3-(3-fluorophenyl)-1-propylamine], for which the IC50 stood at 0.38 µM in the test on NMDA receptor and 0.661 µM in test [1] (setting [2]).
Turning to `CCC(NCCC(c1ccccc1)c1ccccc1)c1cccc(F)c1` (stereo not shown) [Compound 164], the half-inhibitory concentration (IC50) in the test with NMDA receptor came to 0.475 µM; in test [1] (setting [2]), 18.3 µM.
The like results for `NCCN1c2ccccc2CCc2ccccc21` [Eli Lilly Compound, reference compound] were, in that order, 0.609 µM and 1.17 µM.
On to `NCC=C(c1ccccc1)c1ccccc1` [Compound 81, 3,3-diphenyl-prop-2-ene-1-amine], for which the half-maximal inhibitory concentration (IC50) was found to be 1.4 µM with NMDA receptor and 6.1 µM in test [1] (setting [2]).
Regarding `CC(C)C(NCCC(c1ccccc1)c1ccccc1)c1ccccc1` (stereo not shown) [Compound 158], the half-maximal inhibitory concentration (IC50) worked out at 0.351 µM in the test with NMDA receptor and 39.6 µM in test [1] (setting [2]).
Regarding `COc1ccccc1CC(=O)NC(Cc1ccccc1)C(=O)NCCCCCNCCCNCCCNC(=O)C(N)CCCNC(=N)N` (stereo not shown) [Compound 6], the 50% inhibitory concentration (IC50) with NMDA receptor is 0.129 µM; in test [1] (setting [2]), more than 100 µM. Also, the “% inhibition of [3H]MK-801 binding at the stated concentration (IC50 study incomplete)” value in test [1] (at 100 μM) is “(0% at 100 μM)^d”.
On to `NCCC(Oc1ccccc1)c1cccc(Cl)c1` (stereo not shown) [Compound 148], for which the half-maximal inhibitory concentration (IC50) in the test on NMDA receptor worked out at 0.549 µM; in test [1] (setting [2]), 0.373 µM.
As for `NCCC1c2ccccc2C=Cc2ccccc21` [Compound 184], the concentration for half-maximal inhibition (IC50) is 1.5 µM in the test on NMDA receptor; 1.51 µM and 1.65 µM in test [1] (setting [2]).
Consider `COc1ccc(C(=CCN)c2cccc(F)c2)cc1F` [Compound 172, (E))- and (Z)-3-(3-Fluoro-4-methoxy)-3-(3-fluorophenyl)allylamine hydrochloride], for which the IC50 with NMDA receptor was found to be 38 µM; in test [1] (setting [2]), 37.3 µM.
For the compound `CNCCCC1c2ccccc2C=Cc2ccccc21` [protriptyline, reference compound], in the test on NMDA receptor, the “% inhibition vs. NMDA” value is 73% @ 10 μM and the IC50 is not above 10 µM. Besides, the 50% inhibitory concentration (IC50) in test [1] (setting [2]) amounted to 21.4 µM.
In the case of `Cc1ccccc1OC(CCN)c1cccc(F)c1` (stereo not shown) [Compound 181], the IC50 stood at 0.081 µM with NMDA receptor and 0.632 µM in test [1] (setting [2]).
On to `NCCc1ccccc1Cc1ccccc1` [Compound 128], for which the IC50 with NMDA receptor stood at 0.646 µM; in test [1] it was 5.5 µM.
On to `CCC(NCCC(c1ccccc1)c1ccccc1)c1ccc(OC)cc1` (stereo not shown) [Compound 166], for which the results for the 50% inhibitory concentration (IC50) (in the test on NMDA receptor; in test [1] (setting [2])) were 0.619 µM and 36.7 µM, respectively.
Regarding `NCCCc1ccccc1Cc1ccccc1` [Compound 127], the IC50 in the test with NMDA receptor came out at 1.2 µM; in test [1] (setting [2]), 17.5 µM.
In the same order, the values of `CN(C)CCC(c1cccc(F)c1)c1cccc(F)c1` [Compound 123, N,N-dimethyl-3,3-bis(3-fluorophenyl)-1-propylamine] are 9.6 µM and more than 3 µM.
In the same order, the values of `NCCN(c1ccccc1)c1ccccc1` [Compound 117] are 19.6 µM and 6 µM.
`NCCOC(c1ccccc1)c1ccccc1` [Compound 88]: the concentration for half-maximal inhibition (IC50) in the test with NMDA receptor was 2.5 µM; in test [1] (setting [2]) it was 10.6 µM.
Take `NCC(Cc1ccccc1)c1ccccc1` (stereo not shown) [Compound 133]: the IC50 in the test with NMDA receptor turned out to be 0.76 µM; in test [1] (setting [2]), 3 µM.
Turning to `CCC(NCCC(c1ccccc1)c1ccccc1)c1cccc([N+](=O)[O-])c1` (stereo not shown) [Compound 170], the concentration for half-maximal inhibition (IC50) came out at 0.238 µM in the test with NMDA receptor and 57 µM in test [1] (setting [2]).
As to `CCC(NCCC(c1ccccc1)c1ccccc1)c1ccccc1` (stereo not shown) [Compound 91], the IC50 in the test on NMDA receptor turned out to be 0.162 µM; in test [1] (setting [2]) it was 14.1 µM.
With `COc1ccccc1C(CCN)c1ccccc1OC` [Compound 62, 3,3-bis(2-methoxyphenyl)-1-propylamine], the concentration for half-maximal inhibition (IC50) in the test with NMDA receptor stood at 0.177 µM; in test [1] (setting [2]), 0.617 µM.
In the case of `NCCC(c1cccc(F)c1)c1cccs1` (stereo not shown) [Compound 83], the results for the IC50 (with NMDA receptor; in test [1] (setting [2])) were 0.342 µM and 0.794 µM, respectively.
In the same order, the values of `NCCC(c1ccccc1F)c1ccccc1F` [Compound 53, 3,3-bis(2-fluorophenyl)-1-propylamine] are 0.217 µM and 4.2 µM.
In the case of `Cc1ccc(C(CCN)c2cccc(F)c2)cc1` (stereo not shown) [Compound 29, 3-(3-fluorophenyl)-3-(4-methylphenyl)-1-propylamine], the IC50 was found to be 1.9 µM in the test on NMDA receptor and 5.8 µM in test [1] (setting [2]).
Consider `COc1ccc(C(CCN)c2cccc(F)c2)cc1` (stereo not shown) [Compound 26, 3-(3-fluorophenyl)-3-(4-methoxyphenyl)-1-propylamine], for which the results for the 50% inhibitory concentration (IC50) (in the test on NMDA receptor; in test [1] (setting [2])) were 27 µM and 34 µM, respectively.
In the case of `CCC(NCCC(c1ccccc1)c1ccccc1)c1cccc(C)c1` (stereo not shown) [Compound 168], the figures for the IC50 (with NMDA receptor; in test [1] (setting [2])) were 0.092 µM and 17.4 µM, respectively.
Regarding `N=C(N)CC(c1cccc(F)c1)c1cccc(F)c1` [Compound 89], the concentration for half-maximal inhibition (IC50) was 0.24 µM with NMDA receptor and 1.2 µM in test [1] (setting [2]).
With `NCC(Cc1cccc(F)c1)Cc1cccc(F)c1` [Compound 126], the IC50 with NMDA receptor was 0.398 µM; in test [1] (setting [2]), 6 µM.
On to `NCCCC(c1cccc(F)c1)c1cccc(F)c1` [Compound 100, 4,4-bis(3-fluorophenyl)-1-butylamine], for which the IC50 with NMDA receptor is 0.602 µM; in test [1] (setting [2]) it was 3.2 µM.
With `NCCC(Oc1cccc(F)c1)c1cccc(Cl)c1` (stereo not shown) [Compound 150], the figures for the IC50 (in the test on NMDA receptor; in test [1] (setting [2])) were 0.195 µM and 0.351 µM, respectively.
For `Fc1cccc(C(CCNCc2ccccc2)c2cccc(F)c2)c1` [Compound 92], the figures for the 50% inhibitory concentration (IC50) (in the test with NMDA receptor; in test [1] (setting [2])) were 1.3 µM and 20.2 µM, respectively.
As for `OC1(C(c2cccc(F)c2)c2cccc(F)c2)CCNC1` (stereo not shown) [Compound 84], the values for the IC50 (in the test with NMDA receptor; in test [1] (setting [2])) were 7.9 µM and 23.4 µM, respectively.
On to `NCCC(c1cccc(F)c1)c1cc(F)cc(F)c1` (stereo not shown) [Compound 96, 3-(3,5-difluorophenyl)-3-(3-fluorophenyl)-1-propylamine], for which the half-inhibitory concentration (IC50) in the test on NMDA receptor is 0.187 µM; in test [1] (setting [2]) it was 1.1 µM.
For the compound `C[C@H](N)[C@H](C)C(c1ccccc1)c1ccccc1` [Compound 87], the results for the 50% inhibitory concentration (IC50) (in the test with NMDA receptor; in test [1] (setting [2])) were 0.657 µM and 3 µM, respectively.
